Reference: PubChem BioAssay AID434987 (Southern Research Specialized Biocontainment Screening …, 2010)
Calls of active or inactive are those of the source. No rule for the calls is given here.

Test system: M. tuberculosis H37Rv growth inhibition with meropenem
Test: dose response, H37Rv, with and without meropenem (AID 434987);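 also: growth over 7 days at 37 °C before Alamar Blue read on day 9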
[1] = M. tuberculosis H37Rv growth inhibition, measured here: IC50 without meropenem
[2] = M. tuberculosis H37Rv growth inhibition, measured here: IC90 without meropenem
[3] = measured here: IC90 with meropenem

Compound | IC50 | IC50 [1] [µM] | IC90 [2] [µM] | IC90 [3] [µM]
N/C(=N\c1nc2ccccc2o1)NC(=O)c1ccccc1NC(=O)c1ccccc1 | > 100 µM (inactive) | > 100 | > 100 | > 100
Cc1ccc(C)c(NC(=O)C2Cc3ccccc3CN2C(=O)OCc2ccccc2)c1 (configuration not stated) | 71.3 µM (inactive) | 91.3 | > 100 | > 100
c1ccc(-c2oc3ncnc(NCCN4CCOCC4)c3c2-c2ccccc2)cc1 | > 100 µM (inactive) | > 100 | > 100 | > 100
Cc1ccc(OCC(=O)N/N=C/c2cn(C)c3ccccc23)cc1 | 24.7 µM | > 100 | > 100 | > 100
N=C1C(c2nc3ccccc3[nH]2)=C(O)CN1c1ccc(F)cc1 | 7.73 µM | > 100 | > 100 | > 100
CC(C)c1ccc(S(=O)(=O)N2CCN(C(C)C(=O)NC3CCCC3)CC2)cc1 (configuration not stated) | > 100 µM (inactive) | > 100 | > 100 | > 100
COc1ccc(NC(=O)CSc2nc(N)c(C(=O)Nc3ccc(N(C)C)cc3)s2)cc1 | 22.8 µM | > 100 | > 100 | > 100
CN(/N=C/c1ccncc1)c1cnc2ccccc2n1 | 59.8 µM (inactive) | > 100 | > 100 | > 100
CCCc1nc2oc3c(OCC)ncnc3c2c2c1COC(C)(C)C2 | 72.5 µM (inactive) | > 100 | > 100 | > 100
CC(/C=N/NC(=O)c1cc(-c2cccs2)[nH]n1)=C\c1ccccc1 | > 100 µM (inactive) | > 100 | > 100 | > 100
CC(C)c1ccc(/C=C/C(=O)NC2CCCCC2)cc1 | 38.2 µM | > 100 | > 100 | > 100
O=C(CN1C(=O)c2cccc([N+](=O)[O-])c2C1=O)N1CCN(c2ccc(F)cc2)CC1 | 58.6 µM (inactive) | 91.4 | > 100 | 74.5
COc1cccc(C(=O)C2CCCN(Cc3ccccn3)C2)c1 (configuration not stated) | 1.46 µM | 16.2 | > 100 | 97.5
Cc1ccc(CN2CCSc3ccc(C(=O)NC4CCN(Cc5ccccc5)CC4)cc32)cc1 | > 100 µM (inactive) | > 100 | > 100 | > 100
CSc1ncnc2c1ccn2CC(=O)Nc1ccc(C)c(C)c1 | 8.44 µM | > 100 | > 100 | > 25
O=C(Nc1cccc(C(F)(F)F)c1)N1CCC(c2nc(-c3ccc(F)cc3)no2)CC1 | > 100 µM (inactive) | > 100 | > 100 | > 100
CCCCN(CC)S(=O)(=O)c1ccc(C(=O)Nc2nnc(CSC)o2)cc1 | 17.2 µM (inactive) | 25.2 | > 100 | 31.7
CCOC(=O)c1sc2ccccc2c1NC(=O)c1coc2ccccc2c1=O | > 100 µM (inactive) | > 100 | > 100 | > 100
Cn1c(/C=C/c2ccc(Cl)cc2)c([N+](=O)[O-])c(=O)n(C)c1=O | > 100 µM (inactive) | > 100 | > 100 | > 100
COc1cc(NC(=O)c2cccc(Cl)c2)c(OC)cc1NC(=O)CN1CCCCC1 | 7.42 µM | 23.7 | 61.4 | 75.5

Compound | IC50 | IC50 [1] [µM] | IC90 [2] [µM] | IC90 [3] [µM]
CCOc1ccc(-c2nnc(-c3ccc(OC)cc3)o2)cc1 | 4.65 µM | 35.6 | > 100 | > 100
CCc1cc2c(=O)nc3n(c2s1)Cc1ccccc1/C3=C(/O)c1ccc(F)cc1 | > 100 µM (inactive) | > 100 | > 100 | > 100
CC(C)(C)OC(=O)N1CCC(NC(=O)c2[nH]cnc2C(=O)Nc2ccccc2)CC1 | > 100 µM (inactive) | > 100 | > 100 | > 100
Cc1cccc(Cl)c1NC(=S)NN | 36 µM (inactive) | 44.5 | 59.5 | 55.1
COc1ccc(OC)c(C2CC(c3c(-c4ccccc4)c4cc(Cl)ccc4[nH]c3=O)=NN2S(C)(=O)=O)c1 (configuration not stated) | > 100 µM (inactive) | > 100 | > 100 | > 100
Cc1nn(-c2ccccc2)c(N2CCCC2)c1/C=C1\N=C(c2ccc(F)cc2)OC1=O | 10.7 µM (inactive) | 23.4 | 26.8 | 22.9
CSc1ccc(/C=C/C(=O)NC23CC4CC(CC(C4)C2)C3)cc1 | 5.06 µM | 27.2 | > 100 | 16.1
CC(=O)Nc1cccc(/C(C)=N/NC(N)=S)c1 | 7.9 µM | > 100 | > 100 | 28.6
O=C(Nc1nnc(-c2ccc3c(c2)OCCO3)o1)C1CCCCC1 | 16.3 µM | 55 | > 100 | > 100
BrC(=C\c1ccccc1)/C=N/N1CCN(c2ccccn2)CC1 | > 100 µM (inactive) | > 100 | > 100 | > 100
COc1ccc(OC)c(NC(=O)c2ccccc2SC)c1 | 19.8 µM | 83 | > 100 | > 100
Cc1ccc(-c2cc(C(=O)N/N=C/C=C/c3ccccc3)n[nH]2)o1 | > 100 µM (inactive) | > 100 | > 100 | > 100
CCOC(=O)Cn1c(=NC(=O)C2CC2)sc2c(C)cc(C)cc21 | 9.84 µM | > 100 | > 100 | > 100
COc1ccc(C(=O)Nc2ccc(C(=O)OCC(=O)c3ccccc3)cc2)cc1 | > 100 µM (inactive) | > 100 | > 100 | > 100
COC(=O)/C(=C\Nc1ccc(Cl)cc1Cl)NC(=O)c1ccc(Cl)cc1Cl | > 100 µM (inactive) | > 100 | > 100 | > 100
CCc1cc(C(=O)O)c(NC(=O)/C=C/c2ccc(OC)cc2)s1 | 8.76 µM | 21.5 | > 100 | 59.7
CCOC(=O)C1=C(N)OC(CCl)=C(C#N)C1c1ccsc1 (configuration not stated) | > 100 µM (inactive) | > 100 | > 100 | > 100
CCCc1cc(C(=O)OCC(=O)N2CCN(c3ccc(OC)cc3)CC2)sc1C | > 100 µM (inactive) | > 100 | > 100 | > 100
O=C(Nc1ccccc1-c1ccccc1)C12CC3CC(CC(C3)C1)C2 | > 100 µM (inactive) | > 100 | > 100 | > 100
O=C(Nc1ccc2oc(-c3ccc(Cl)c(Cl)c3)nc2c1)c1ncn[nH]1 | 61.9 µM (inactive) | 79.8 | > 100 | > 100

Compound | IC50 | IC50 [1] [µM] | IC90 [2] [µM] | IC90 [3] [µM]
O=C(NC1CCCCC1)C1CCN(c2nccs2)CC1 | 40.2 µM | > 100 | > 100 | > 100
CCOC(=O)c1c(C)[nH]c(C(=O)COC(=O)CCC2CCCC2)c1C | > 100 µM (inactive) | > 100 | > 100 | > 100
COc1ccc(/C=C/C(=O)N(C(C)C)C(C)C)cc1Br | 5.89 µM | 93 | > 100 | 96.4
Cc1ccc(Cn2c(NC(=O)c3ccco3)nc3ccccc32)cc1 | 2.62 µM | > 100 | > 100 | > 100
C=CCC(Nc1ccccc1)C12C=CC(O1)C(C(=O)OC)=C2C(=O)OC (configuration not stated) | > 100 µM (inactive) | > 100 | > 100 | > 100
COc1ccc(OC(=O)c2cccc([N+](=O)[O-])c2)c(C(=O)/C=C/c2cccs2)c1 | 27.5 µM | 68.3 | > 100 | > 100
CCOC(=O)C1CCCN(c2ccc(NC(=O)c3snc4c(=O)[nH]cnc34)cc2)C1 (configuration not stated) | 12.7 µM | 59.4 | > 100 | > 100
COC(=O)c1cc(OC)c(OC)cc1NC(=S)N1CCN(C)CC1 | > 100 µM (inactive) | > 100 | > 100 | > 100
CCOC(=O)c1sc(NC(=O)CSc2n[nH]c(CC(C)C)n2)nc1C | 19.3 µM (inactive) | 46.5 | > 100 | > 100
Cc1ccn2c(CNCCn3nc(C)cc3C)c(C(=O)N3CCCCCC3)nc2c1 | > 100 µM (inactive) | > 100 | > 100 | > 100
CCOC(=O)C1CSC(CC(=O)Nc2ccc(Cl)c(Cl)c2)C(=O)N1 (configuration not stated) | 10.8 µM | 47.7 | 54.3 | 35.4
CC(=O)c1c(OC(=O)c2cccc(Cl)c2)c2ccccc2n1C | 29.5 µM (inactive) | 68.6 | > 100 | > 100
Cc1ccc(SCc2c(-c3ccccc3)nn(C)c2Cl)cc1 | 20.9 µM | 58.7 | > 100 | > 100
Cc1cc(F)ccc1NCC(=O)Nc1ccc(Br)cc1C | 94.2 µM (inactive) | 98.2 | > 100 | > 100
COc1ccc(S(=O)(=O)N(C(=O)c2ccncc2)c2ccc3oc4c(c3c2)CCCC4)cc1 | 99 µM (inactive) | 94.7 | > 100 | > 100
COc1cc2c(=O)n(Cc3ccco3)c(=O)n(CC(=O)c3cccc(Br)c3)c2cc1OC | > 100 µM (inactive) | > 100 | > 100 | > 100
COc1ccc(-c2nc(-c3cccc(C)c3)no2)cc1OC | > 100 µM (inactive) | > 100 | > 100 | > 100
O=C(Cn1c(=O)c2cccn2c2ccccc21)NCCc1ccc(Cl)cc1 | > 100 µM (inactive) | > 100 | > 100 | > 100
